Assay: Particle size distribution (D50, D90) of the polymorph
Format: physicochemical
Details: for Particle size D(0.9): D90; for Particle size D(0.5): median diameter D50
[1] = listed as Mesotrione copper chelate form II-a
[2] = listed as Mesotrione copper chelate form II-b
[3] = listed as Mesotrione copper chelate form I-a
[4] = listed as Mesotrione copper chelate form I-b

Row | Substance | Particle size D(0.9) [1] [μm] | Particle size D(0.9) [2] [μm] | Particle size D(0.5) [1] [μm] | Particle size D(0.5) [2] [μm] | Particle size D(0.9) [3] [μm] | Particle size D(0.9) [4] [μm] | Particle size D(0.5) [3] [μm] | Particle size D(0.5) [4] [μm]
1 | mesotrione copper chelate [Mesotrione copper chelate form II] | 34.08 | 27.33 | 17.58 | 16.74 | – | – | – | –
2 | mesotrione copper chelate [Mesotrione copper chelate form I] | – | – | – | – | 13.02 | 13.22 | 7.94 | 7.62

Source: patent US12402624B2, “Polymorphs of mesotrione metal chelate and preparation process” (priority 2017, dated 2025)
